# From patent US7238694B2, “Rifamycin imino derivatives effective against drug-resistant microbes” (Cumbre Pharmaceuticals, Inc., priority 2004, dated 2007)
# Columns and labels:
# Format in all cases: cell-based
# [1] = tested on: Staphylococcus epidermidis ATCC12228; assay: MIC, microbroth dilution (NCCLS); settings: rifS strain, Cation-Adjusted Mueller-Hinton Broth, 37° C., read-out: MIC
# [2] = tested on: Staphylococcus aureus ATCC29213; assay: MIC, microbroth dilution (NCCLS); settings: rifS strain, Cation-Adjusted Mueller-Hinton Broth, 37° C., read-out: MIC
# [3] = tested on: Streptococcus pneumoniae ATCC6303; assay: MIC, microbroth dilution (NCCLS); settings: rifS strain, THY Broth with 1 mg/mL catalase, 5% CO2, 37° C., read-out: MIC
# [4] = tested on: Haemophilus influenzae ATCC10211; assay: MIC, microbroth dilution (NCCLS); settings: rifS strain, BHI Broth with NAD and hematin, 37° C., read-out: MIC
# [5] = tested on: Staphylococcus aureus ATCC29213 rpoB^H418Y; assay: microbe, parasite or virus in culture; settings: Staphylococcus aureus, ATCC29213; rifR strain; Cation-Adjusted Mueller-Hinton Broth, 37° C.; read-out: MIC
# [6] = tested on: Streptococcus pyogenes ATCC19615; assay: MIC, microbroth dilution (NCCLS); settings: rifS strain, THY Broth, 37° C., read-out: MIC
# [7] = tested on: Staphylococcus aureus MT1222 gyrA^A116E grlB^S80F; assay: microbe, parasite or virus in culture; settings: cipR strain, Cation-Adjusted Mueller-Hinton Broth, 37° C., read-out: MIC
SMILES,MIC [1],MIC [2],MIC [3],MIC [4],MIC [5],MIC [6],MIC [7]
"COc1c(N2CCC(C(C)NC3CCN(/N=C/c4c5c(O)c6c(O)c(C)c7c(c6c4O)C(=O)[C@@](C)(O/C=C/[C@H](OC)[C@@H](C)[C@@H](OC(C)=O)[C@H](C)[C@H](O)[C@H](C)[C@@H](O)[C@@H](C)/C=C/C=C(/C)C(=O)N5)O7)CC3)C2)c(F)cc2c(=O)c(C(=O)O)cn(C3CC3)c12 (mixture of isomers) [Example 41, 3-{4-[1-(3-Carboxy-1-cyclopropyl-6-fluoro-8-methoxy-4-oxo-1,4-dihydroquinolin-7-yl)-pyrrolidin-3-yl-ethylamino]-piperidin-1-yl-aminomethylenyl}-rifamycin SV]",0.008 to 0.1 mg/L,0.008 to 1 mg/L,0.008 to 0.06 mg/L,0.125 to 4 mg/L,0.06 to 16 mg/L,0.008 to 0.03 mg/L,0.008 to 0.125 mg/L
"CO[C@H]1/C=C/O[C@@]2(C)Oc3c(C)c(O)c4c(O)c(c(/C=N/NC5CCN(c6c(F)cc7c(=O)c(C(=O)O)cn(C8CC8)c7c6Cl)C5)c(O)c4c3C2=O)NC(=O)/C(C)=C\C=C\[C@H](C)[C@H](O)[C@@H](C)[C@@H](O)[C@@H](C)[C@H](OC(C)=O)[C@@H]1C (mixture of isomers) [Example 6, (R/S)-3-[1-(8-chloro-3-carboxy-1-cyclopropyl-6-fluoro-4-oxo-1,4-dihydroquinolin-7-yl)-pyrrolidin-3-ylhydrazinomethylenyl]rifamycin SV]",0.008 to 0.1 mg/L,0.008 to 1 mg/L,0.008 to 0.06 mg/L,0.125 to 4 mg/L,0.06 to 16 mg/L,0.008 to 0.03 mg/L,0.008 to 0.125 mg/L
"COc1c(N2CCN(/N=C/c3c4c(O)c5c(O)c(C)c6c(c5c3O)C(=O)[C@@](C)(O/C=C/[C@H](OC)[C@@H](C)[C@@H](OC(C)=O)[C@H](C)[C@H](O)[C@H](C)[C@@H](O)[C@@H](C)/C=C/C=C(/C)C(=O)N4)O6)C(C)C2)c(F)cc2c(=O)c(C(=O)O)cn(C3CC3)c12 (mixture of isomers) [Example 7, (R/S)-3-[4-(3-Carboxy-1-cyclopropyl-6-fluoro-8-methoxy-4-oxo-1,4-dihydroquinolin-7-yl)-2-methyl-piperazin-1-yl-aminomethylenyl]rifamycin SV]",0.008 to 0.1 mg/L,0.008 to 1 mg/L,0.008 to 0.06 mg/L,0.125 to 4 mg/L,0.06 to 16 mg/L,0.008 to 0.03 mg/L,0.008 to 0.125 mg/L
"CCn1cc(C(=O)O)c(=O)c2cc(F)c(N3CCN(/N=C/c4c5c(O)c6c(O)c(C)c7c(c6c4O)C(=O)[C@@](C)(O/C=C/[C@H](OC)[C@@H](C)[C@@H](OC(C)=O)[C@H](C)[C@H](O)[C@H](C)[C@@H](O)[C@@H](C)/C=C/C=C(/C)C(=O)N5)O7)C(C)C3)c(F)c21 (mixture of isomers) [Example 8, (R/S)-3-[4-(3-Carboxy-1-ethyl-6,8-difluoro-8-4-oxo-1,4-dihydroquinolin-7-yl)-2-methyl-piperazin-1-yl-aminomethylenyl]rifamycin SV]",0.008 to 0.1 mg/L,0.008 to 1 mg/L,0.008 to 0.06 mg/L,0.125 to 4 mg/L,0.06 to 16 mg/L,0.008 to 0.03 mg/L,0.008 to 0.125 mg/L
"CO[C@H]1/C=C/O[C@@]2(C)Oc3c(C)c(O)c4c(O)c(c(/C=N/NC5CCN(c6nc7c(cc6F)c(=O)c(C(=O)O)cn7-c6ccc(F)cc6F)C5)c(O)c4c3C2=O)NC(=O)/C(C)=C\C=C\[C@H](C)[C@H](O)[C@@H](C)[C@@H](O)[C@@H](C)[C@H](OC(C)=O)[C@@H]1C (mixture of isomers) [Example 9, (R/S)-3-[1-[3-Carboxy-1-(2,4-difluoro-phenyl)-6-fluoro-4-oxo-1,4-dihydro-[1,8]naphthyridin-7-yl]-pyrrolidinyl-3-hydrazinomethylenyl]rifamycin SV]",0.008 to 0.1 mg/L,0.008 to 1 mg/L,0.008 to 0.06 mg/L,0.125 to 4 mg/L,0.06 to 16 mg/L,0.008 to 0.03 mg/L,0.008 to 0.125 mg/L
"CO[C@H]1/C=C/O[C@@]2(C)Oc3c(C)c(O)c4c(O)c(c(/C=N/N(C5CCN(C)CC5)C5CCN(c6cc7c(cc6F)c(=O)c(C(=O)O)cn7C6CC6)C5)c(O)c4c3C2=O)NC(=O)/C(C)=C\C=C\[C@H](C)[C@H](O)[C@@H](C)[C@@H](O)[C@@H](C)[C@H](OC(C)=O)[C@@H]1C (mixture of isomers) [Example 11, (R/S)-3-[1-(3-Carboxy-1-cyclopropyl-6-fluoro-4-oxo-1,4-dihydroquinolin-7-yl)-pyrrolidin-3-yl-N′-(1-methyl-piperidin-4-yl)-hydrazinomethylenyl]rifamycin SV]",0.008 to 0.1 mg/L,0.008 to 1 mg/L,0.008 to 0.06 mg/L,0.125 to 4 mg/L,0.06 to 16 mg/L,0.008 to 0.03 mg/L,0.008 to 0.125 mg/L
"COc1c(N2CCN(/N=C/C3=C4NC(=O)/C(C)=C\C=C\[C@H](C)[C@H](O)[C@@H](C)[C@@H](O)[C@@H](C)[C@H](OC(C)=O)[C@H](C)[C@@H](OC)/C=C/O[C@@]5(C)Oc6c(C)c(O)c(c(c6C5=O)C3=O)C4=O)C(C)C2)c(F)cc2c(=O)c(C(=O)O)cn(C3CC3)c12 (mixture of isomers) [Example 12, (R/S)-3-[4-(3-Carboxy-1-cyclopropyl-6-fluoro-8-methoxy-4-oxo-1,4-dihydroquinolin-7-yl)-2-methylpiperazin-1-yl-aminomethylenyl]rifamycin S]",0.008 to 0.1 mg/L,0.008 to 1 mg/L,0.008 to 0.06 mg/L,0.125 to 4 mg/L,0.06 to 16 mg/L,0.008 to 0.03 mg/L,0.008 to 0.125 mg/L
"CO[C@H]1/C=C/O[C@@]2(C)Oc3c(C)c(O)c4c(O)c(c(/C=N/N(C)C5CCN(c6cc7c(cc6F)c(=O)c(C(=O)O)cn7C6CC6)C5)c(O)c4c3C2=O)NC(=O)/C(C)=C\C=C\[C@H](C)[C@H](O)[C@@H](C)[C@@H](O)[C@@H](C)[C@H](OC(C)=O)[C@@H]1C (mixture of isomers) [Example 15, (R/S)-3-[1-(3-Carboxy-1-cyclopropyl-6-fluoro-4-oxo-1,4-dihydroquinolin-7-yl)-pyrrolidin-3-yl-N′-methylhydrazinomethylenyl]rifamycin SV]",0.008 to 0.1 mg/L,0.008 to 1 mg/L,0.008 to 0.06 mg/L,0.125 to 4 mg/L,0.06 to 16 mg/L,0.008 to 0.03 mg/L,0.008 to 0.125 mg/L
COc1c(N2CCC(C3(N(C)C4CCN(/N=C/c5c6c(O)c7c(O)c(C)c8c(c7c5O)C(=O)[C@@](C)(O/C=C/[C@H](OC)[C@@H](C)[C@@H](OC(C)=O)[C@H](C)[C@H](O)[C@H](C)[C@@H](O)[C@@H](C)/C=C/C=C(/C)C(=O)N6)O8)CC4)CC3)C2)c(F)cc2c(=O)c(C(=O)O)cn(C3CC3)c12 (mixture of isomers) [Example 16],0.008 to 0.1 mg/L,0.008 to 1 mg/L,0.008 to 0.06 mg/L,0.125 to 4 mg/L,0.06 to 16 mg/L,0.008 to 0.03 mg/L,0.008 to 0.125 mg/L
"CO[C@H]1/C=C/O[C@@]2(C)Oc3c(C)c(O)c4c(O)c(c(/C=N/N5CCC(N(C)C6(C7CCN(c8c(F)cc9c(=O)c(C(=O)O)cn(C%10CC%10)c9c8Cl)C7)CC6)CC5)c(O)c4c3C2=O)NC(=O)/C(C)=C\C=C\[C@H](C)[C@H](O)[C@@H](C)[C@@H](O)[C@@H](C)[C@H](OC(C)=O)[C@@H]1C (mixture of isomers) [Example 17, (R/S)-3-{[4-({1-[1-(3-Carboxy-8-chloro-1-cyclopropyl-6-fluoro-4-oxo-1,4-dihydro-quinolin-7-yl)-pyrrolidin-3-yl]-cyclopropyl}-methyl-amino)-piperidin-1-ylimino]-methyl}-rifamycin SV]",0.008 to 0.1 mg/L,0.008 to 1 mg/L,0.008 to 0.06 mg/L,0.125 to 4 mg/L,0.06 to 16 mg/L,0.008 to 0.03 mg/L,0.008 to 0.125 mg/L
"COc1c(N2CCC(N/N=C/c3c4c(O)c5c(O)c(C)c6c(c5c3O)C(=O)[C@@](C)(O/C=C/[C@H](OC)[C@@H](C)[C@@H](OC(C)=O)[C@H](C)[C@H](O)[C@H](C)[C@@H](O)[C@@H](C)/C=C/C=C(/C)C(=O)N4)O6)C2)c(F)cc2c(=O)c(C(=O)O)cn(C3CC3)c12 (mixture of isomers) [Example 21, (R/S)-3-[1-(3-Carboxy-1-cyclopropyl-6-fluoro-8-methoxy-4-oxo-1,4-dihydroquinolin-7-yl)-pyrrolidinyl-3-hydrazino-methylenyl]-rifamycin SV]",0.008 to 0.1 mg/L,0.008 to 1 mg/L,0.008 to 0.06 mg/L,0.125 to 4 mg/L,0.06 to 16 mg/L,0.008 to 0.03 mg/L,0.008 to 0.125 mg/L
"COc1c(N2CCC(N(C)/N=C/c3c4c(O)c5c(O)c(C)c6c(c5c3O)C(=O)[C@@](C)(O/C=C/[C@H](OC)[C@@H](C)[C@@H](OC(C)=O)[C@H](C)[C@H](O)[C@H](C)[C@@H](O)[C@@H](C)/C=C/C=C(/C)C(=O)N4)O6)C2)c(F)cc2c(=O)c(C(=O)O)cn(C3CC3)c12 (mixture of isomers) [Example 22, (R/S)-3-[1-(3-Carboxy-1-cyclopropyl-6-fluoro-8-methoxy-4-oxo-1,4-dihydroquinolin-7-yl)-pyrrolidinyl-3-methylhydrazino-methylenyl]-rifamycin SV]",0.008 to 0.1 mg/L,0.008 to 1 mg/L,0.008 to 0.06 mg/L,0.125 to 4 mg/L,0.06 to 16 mg/L,0.008 to 0.03 mg/L,0.008 to 0.125 mg/L
"COc1c(N2CCN(/N=C/c3c4c(O)c5c(O)c(C)c6c(c5c3O)C(=O)[C@@](C)(O/C=C/[C@H](OC)[C@@H](C)[C@@H](OC(C)=O)[C@H](C)[C@H](O)[C@H](C)[C@@H](O)[C@@H](C)/C=C/C=C(/C)C(=O)N4)O6)C(C(=O)O)C2)c(F)cc2c(=O)c(C(=O)O)cn(C3CC3)c12 (mixture of isomers) [Example 23, (R/S)-3-[4-(3-Carboxy-1-cyclopropyl-6-fluoro-8-methoxy-4-oxo-1,4-dihydroquinolin-7-yl)-3-carboxy-piperazin-1-yl-aminomethylenyl]-rifamycin SV]",0.008 to 0.1 mg/L,0.008 to 1 mg/L,0.008 to 0.06 mg/L,0.125 to 4 mg/L,0.06 to 16 mg/L,0.008 to 0.03 mg/L,0.008 to 0.125 mg/L
